Source: PubChem BioAssay AID1259411 (Chemical Carcinogenesis Research Information System (CCRIS), 2018)
Calls of active or inactive are those of the source. No rule for the calls is given here.

Test system: rodent carcinogenicity bioassays, tumor incidence
Test: CCRIS carcinogenicity studies
Outline: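 Archive of carcinogenicity, mutagenicity, tumor promotion and tumor inhibition results drawn from journals, NCI reports and other sources, expert-reviewed; covers 1985-2011 and is no longer updated.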

## C1CC[CH]([Sn]([CH]2CCCCC2)[CH]2CCCCC2)CC1
Species: Mouse, Strain/Sex: B6C3F1/Female (50/group), Route: Oral, Dose: 0, 1, 3, 6 mg/kg of 98% pure cyhexatin in diet for 2 years, Dose: 0, 1, 3, 6 mg/kg of 98% pure cyhexatin in diet for 2 years
  carcinogen call: inactive; negative, (dpr evaluator indicated inadequate justification of dose and too narr
Species: Mouse, Strain/Sex: B6C3F1/Male (50/group), Route: Oral, Dose: 0, 1, 3, 6 mg/kg of 98% pure cyhexatin in diet for 2 years, Dose: 0, 1, 3, 6 mg/kg of 98% pure cyhexatin in diet for 2 years
  carcinogen call: inactive; negative, (dpr evaluator indicated inadequate justification of dose and too narr

## Nc1cccc2c(N)cccc12
Species: MOUSE, Strain/Sex: B6C3F1/FEMALE, Route: ORAL, Dose: 0, 0.1, 0.2% IN DIET FOR 103 WK (STUDY DURATION: 105-109 WK), Dose: 0, 0.1, 0.2% IN DIET FOR 103 WK (STUDY DURATION: 105-109 WK), Tumor Site: Type of Lesion: LUNG: ALVEOLAR/BRONCHIOLAR ADENOMA OR CARCINOMA, LIVER: HEPATOCELLULAR CARCINOMA, HEPATOCELLULAR ADENOMA OR CARCINOMA, T, Tumor Site: Type of Lesion: LUNG: ALVEOLAR/BRONCHIOLAR ADENOMA OR CARCINOMA, LIVER: HEPATOCELLULAR CARCINOMA, HEPATOCELLULAR ADENOMA OR CARCINOMA, T
  carcinogen call: active; positive
Species: MOUSE, Strain/Sex: B6C3F1/MALE, Route: ORAL, Dose: 0, 0.1, 0.2% IN DIET FOR 103 WK (STUDY DURATION: 105-109 WK), Dose: 0, 0.1, 0.2% IN DIET FOR 103 WK (STUDY DURATION: 105-109 WK), Tumor Site: Type of Lesion: THYROID GLAND: PAPILLARY ADENOMA OR FOLLICULAR CELL ADENOMA OR PAPILLARY CYSTADENOMA (NOS)
  carcinogen call: active; positive
Species: RAT, Strain/Sex: F344/FEMALE, Route: ORAL, Dose: 0, 0.05, 0.1% IN DIET FOR 103 WK (STUDY DURATION: 106-110 WK), Dose: 0, 0.05, 0.1% IN DIET FOR 103 WK (STUDY DURATION: 106-110 WK), Tumor Site: Type of Lesion: CLITORAL GLAND: ADENOMA (NOS) OR CARCINOMA (NOS), UTERUS: ENDOMETRIAL STROMAL POLYP
  carcinogen call: active; positive
Species: RAT, Strain/Sex: F344/MALE, Route: ORAL, Dose: 0, 0.05, 0.1% IN DIET FOR 103 WK (STUDY DURATION: 106-109 WK), Dose: 0, 0.05, 0.1% IN DIET FOR 103 WK (STUDY DURATION: 106-109 WK)
  carcinogen call: inactive; negative

## C1CSCN1
Species: MOUSE, Strain/Sex: CD-1/FEMALE, Route: DERMAL, Dose: 0, 50 UMOL/0.1 ML DMSO 2/WK FOR 5 WK FOLLOWED 1 WK LATER BY 0.1 ML ACETONE 2/WK FOR 47 WK (STUDY DURATION: 52 WK)
  carcinogen call: inactive; negative

## Nc1cc(Cl)c(N)c(Cl)c1
Species: MOUSE, Strain/Sex: B6C3F1/FEMALE, Route: ORAL, Dose: 0, 1000, 3000 PPM IN DIET, Dose: 0, 1000, 3000 PPM IN DIET, Tumor Site: Type of Lesion: LIVER: HEPATOCELLULAR ADENOMA OR CARCINOMA
  carcinogen call: active; positive
Species: MOUSE, Strain/Sex: B6C3F1/MALE, Route: ORAL, Dose: 0, 1000, 3000 PPM IN DIET, Dose: 0, 1000, 3000 PPM IN DIET, Tumor Site: Type of Lesion: LIVER: HEPATOCELLULAR ADENOMA OR CARCINOMA
  carcinogen call: active; positive
Species: RAT, Strain/Sex: F344/FEMALE, Route: ORAL, Dose: 0, 2000, 6000 PPM IN DIET, Dose: 0, 2000, 6000 PPM IN DIET
  carcinogen call: inactive; negative
Species: RAT, Strain/Sex: F344/MALE, Route: ORAL, Dose: 0, 1000, 2000 PPM IN DIET, Dose: 0, 1000, 2000 PPM IN DIET
  carcinogen call: inactive; negative

## COc1ccc(CN(CCN(C)C)c2ccccn2)cc1
Species: MOUSE, Strain/Sex: B6C3F1/FEMALE, Route: ORAL, Dose: 0, 150, 750, 1500 PPM IN DIET FOR 103 WK (STUDY DURATION: 103 WK), Dose: 0, 150, 750, 1500 PPM IN DIET FOR 103 WK (STUDY DURATION: 103 WK)
  carcinogen call: inactive; negative
Species: MOUSE, Strain/Sex: B6C3F1/MALE, Route: ORAL, Dose: 0, 150, 750, 1500 PPM IN DIET FOR 103 WK (STUDY DURATION: 104 WK), Dose: 0, 150, 750, 1500 PPM IN DIET FOR 103 WK (STUDY DURATION: 104 WK)
  carcinogen call: inactive; negative
Species: RAT, Strain/Sex: F344/FEMALE, Route: ORAL, Dose: 0, 300, 1500, 3000 PPM IN DIET FOR 2 YR (STUDY DURATION: 2 YR), Dose: 0, 300, 1500, 3000 PPM IN DIET FOR 2 YR (STUDY DURATION: 2 YR)
  carcinogen call: inactive; negative
Species: RAT, Strain/Sex: F344/FEMALE, Route: ORAL, Dose: 0, 2000 PPM IN DIET (TOTAL DOSE: 120 G/KG) FOR 110 WK (STUDY DURATION: 133 WK)
  carcinogen call: inactive; negative
Species: RAT, Strain/Sex: F344/FEMALE, Route: ORAL, Dose: 0, 2000 PPM IN DRINKING WATER (0.2%) 5 D/WK FOR 110 WK (TOTAL DOSE: 88 G/KG) (STUDY DURATION: 133 WK)
  carcinogen call: inactive; negative
Species: RAT, Strain/Sex: F344/MALE, Route: ORAL, Dose: 0, 300, 1500, 3000 PPM IN DIET FOR 2 YR (STUDY DURATION: 2 YR), Dose: 0, 300, 1500, 3000 PPM IN DIET FOR 2 YR (STUDY DURATION: 2 YR)
  carcinogen call: inactive; negative
Species: RAT, Strain/Sex: F344/MALE, Route: ORAL, Dose: 0, 2000 PPM (0.2%) IN DRINKING WATER 5 D/WK FOR 110 WK (TOTAL DOSE: 55 G/KG) (STUDY DURATION: 133 WK)
  carcinogen call: inactive; negative
Species: RAT, Strain/Sex: F344/MALE, Route: ORAL, Dose: O, 2000 PPM IN DIET (TOTAL DOSE: 110 G/KG) FOR 110 WK (STUDY DURATION: 133 WK)
  carcinogen call: inactive; negative
Species: RAT, Strain/Sex: SPRAGUE-DAWLEY/FEMALE, Route: ORAL, Dose: 0, 500, 1000 PPM IN DRINKING WATER 5D/WK FOR LIFE (STUDY DURATION: 549-745 D), Dose: 0, 500, 1000 PPM IN DRINKING WATER 5D/WK FOR LIFE (STUDY DURATION: 549-745 D)
  carcinogen call: inactive; negative
Species: RAT, Strain/Sex: SPRAGUE-DAWLEY/MALE, Route: ORAL, Dose: 0, 500, 1000 PPM IN DRINKING WATER 5D/WK FOR LIFE (STUDY DURATION: 496-611 D), Dose: 0, 500, 1000 PPM IN DRINKING WATER 5D/WK FOR LIFE (STUDY DURATION: 496-611 D)
  carcinogen call: inactive; negative

## C[C@]12C=CC(=O)C=C1CC[C@@H]1[C@@H]2[C@@H](O)C[C@@]2(C)[C@H]1CC[C@]2(O)C(=O)CO
Species: RAT, Strain/Sex: SPRAGUE-DAWLEY/FEMALE, Route: GAVAGE, Dose: 0, 3 MG/KG ADMINISTERED 1, 2, 4.5 OR 9 TIMES PER MO FOR 18 MO TO GIVE MEDIAN TOTAL DOSES OF 54, 108, 234, 468 MG/KG (STU, Dose: 0, 3 MG/KG ADMINISTERED 1, 2, 4.5 OR 9 TIMES PER MO FOR 18 MO TO GIVE MEDIAN TOTAL DOSES OF 54, 108, 234, 468 MG/KG (STU
  carcinogen call: inactive; negative
Species: RAT, Strain/Sex: SPRAGUE-DAWLEY/MALE, Route: ORAL, Dose: 0, 40 UG/ML IN DRINKING WATER FOR AN AVERAGE DAILY DOSE OF 368 UG/KG FOR 104 WK (STUDY DURATION: 104 WK), Tumor Site: Type of Lesion: LIVER: HEPATOCELLULAR ADENOMA OR CARCINOMA
  carcinogen call: active; positive

## c1ccc2nc3ccc4ccccc4c3cc2c1
Species: RAT, Strain/Sex: OSBORNE-MENDEL/FEMALE, Route: LUNG IMPLANT, Dose: 0, 0.2, 1.0, 5.0 MG IN BEESWAX/TRICAPRYLIN (STUDY DURATION: LIFETIME), Dose: 0, 0.2, 1.0, 5.0 MG IN BEESWAX/TRICAPRYLIN (STUDY DURATION: LIFETIME)
  carcinogen call: inactive; negative

## O=[N+]([O-])NC1=NCCN1Cc1ccc(Cl)nc1
Species: Mouse, Strain/Sex: B6C3F1/Female (60/Group), Route: Oral, Dose: 0, 100, 330, 1000 ppm and 0, 2000 ppm (2 related studies) of 95.3% imidacloprid in diet for 24 mo, study duration 24 mo, Dose: 0, 100, 330, 1000 ppm and 0, 2000 ppm (2 related studies) of 95.3% imidacloprid in diet for 24 mo, study duration 24 mo
  carcinogen call: inactive; negative
Species: Mouse, Strain/Sex: B6C3F1/Male (60/Group), Route: Oral, Dose: 0, 100, 330, 1000 ppm and 0, 2000 ppm (2 related studies) of 95.3% imidacloprid in diet for 24 mo, study duration 24 mo, Dose: 0, 100, 330, 1000 ppm and 0, 2000 ppm (2 related studies) of 95.3% imidacloprid in diet for 24 mo, study duration 24 mo
  carcinogen call: inactive; negative
Species: Rat, Strain/Sex: Wistar/Female (60/Group), Route: Oral, Dose: 0, 100, 300, 900 ppm and 0;1800 ppm (2 related studies) of 94.3% imidacloprid in diet for 24 mo, study duration 24 mo, Dose: 0, 100, 300, 900 ppm and 0;1800 ppm (2 related studies) of 94.3% imidacloprid in diet for 24 mo, study duration 24 mo
  carcinogen call: inactive; negative
Species: Rat, Strain/Sex: Wistar/Male (60/Group), Route: Oral, Dose: 0, 100, 300, 900 ppm and 0, 1800 ppm (2 related studies) of 94.3% imidacloprid in diet for 24 mo, study duration 24 mo, Dose: 0, 100, 300, 900 ppm and 0, 1800 ppm (2 related studies) of 94.3% imidacloprid in diet for 24 mo, study duration 24 mo, Tumor Site: Type of Lesion: Liver: Cholangiocellular carcinoma (2/60 at 1800 ppm vs 0/60 all other groups)
  carcinogen call: active; positive

## c1ccc2c(c1)cc1c3ccccc3c3cccc4ccc2c1c43
Species: MOUSE, Route: DERMAL, Tumor Site: Type of Lesion: INTEGUMENTARY SYSTEM (SKIN)
  carcinogen call: active; positive
Species: MOUSE, Route: SUBCUTANEOUS, Tumor Site: Type of Lesion: INJECTION SITE
  carcinogen call: active; positive
